Measured values: patent publication US5770617A, “Terbenzimidazoles useful as antifungal agents” (Rutgers, The State University of New Jersey, priority 1997, dated 1998)
“Also recorded” adds a separate entry of the source. Each block holds one molecule with its values, some of them ahead of it.

Experiments:
[1] = test system: human lymphoblast RPMI 8402; assay: MTT cytotoxicity assay, RPMI 8402; format: cell-based
Protocol: The cytotoxicity was determined using the as MTT-microtiter plate tetrazolinium cytotoxicity assay (MTA) following the procedures of F. Denizot et al., J. Immunol. Methods, 89, 271 (1986); J. Carmichael et al., Cancer Res, 47, 936 (1987) and T. J. Mosmann et al., Immunol. Methods, 65, 55 (1983). The human lymphoblast RPMI 8402 and its camptothecin-resistant variant cell line, CPT-K5 were provided by Dr. Toshiwo Andoh (Aichi Cancer Center Research Institute, Nagoya, Japan). See, for example, T. Andoh et al., Adv. Pharmacol., 29B, 93 (1994). The cytotoxicity assay was performed using 96-well microtiter plates. Cells were grown in suspension at 37 ° C. in 5% CO2 and maintained by regular passage in RPMI medium supplemented with 10% heat inactivated fetal bovine serum, L-glutamine (2 mM), penicillin (100 U/ml), and streptomycin (0.1 mg/ml). For determination of IC50, cells were exposed continuously with varying concentrations of drug concentrations and MTT assays were performed at the end of the fourth day.

[2] = target: T1, calf thymus topoisomerase I (Bos taurus, UniProt F1MN93); assay: Topoisomerase I-mediated DNA cleavage assay (calf thymus enzyme); format: biochemical; details: for Topo I-mediated DNA cleavage (REC, Relative Effective Concentration): concentration relative to Hoechst 33342 (arbitrarily 1) producing the same cleavage on plasmid DNA, calf thymus topoisomerase I
T1 construct: DNA topoisomerase I was purified from calf thymus gland as reported previously; from tissue; host or cells: calf thymus gland
T1 sequence (F1MN93 1-767): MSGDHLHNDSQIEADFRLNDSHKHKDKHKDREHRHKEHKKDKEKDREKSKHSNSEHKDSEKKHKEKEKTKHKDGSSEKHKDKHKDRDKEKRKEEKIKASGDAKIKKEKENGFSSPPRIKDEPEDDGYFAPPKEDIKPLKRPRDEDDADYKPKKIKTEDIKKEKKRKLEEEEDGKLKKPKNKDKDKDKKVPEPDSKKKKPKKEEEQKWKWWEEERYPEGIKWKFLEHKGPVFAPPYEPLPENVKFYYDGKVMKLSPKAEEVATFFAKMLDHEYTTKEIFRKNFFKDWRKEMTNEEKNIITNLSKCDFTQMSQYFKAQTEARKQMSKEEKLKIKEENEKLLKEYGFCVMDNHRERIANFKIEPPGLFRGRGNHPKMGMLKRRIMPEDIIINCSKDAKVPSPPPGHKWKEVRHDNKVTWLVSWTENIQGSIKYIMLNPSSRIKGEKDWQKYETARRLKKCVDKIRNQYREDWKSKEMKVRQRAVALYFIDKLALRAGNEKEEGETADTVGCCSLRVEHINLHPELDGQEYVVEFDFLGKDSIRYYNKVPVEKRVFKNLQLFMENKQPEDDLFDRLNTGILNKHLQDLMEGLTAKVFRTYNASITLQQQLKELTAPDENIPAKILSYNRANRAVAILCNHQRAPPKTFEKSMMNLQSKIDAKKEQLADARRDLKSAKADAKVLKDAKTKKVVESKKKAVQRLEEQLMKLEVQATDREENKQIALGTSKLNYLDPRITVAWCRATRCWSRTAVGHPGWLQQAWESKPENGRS
Excerpt: A. Topoisomerase I-Mediated DNA Cleavage Assays
DNA topoisomerase I was purified from calf thymus gland as reported previously by B. D. Halligan et al., J. Biol. Chem., 260, 2475 (1985).
Plasmid YEpG was also purified by the alkali lysis method followed by phenol deproteination and CsCl/ethidium isopycnic centrifugation as described by T. Maniatis et al., Molecular Cloning, A Laboratory Manual, Cold Spring Harbor Labs, N.Y. (1982) at pages 149-185. The end-labeling of the plasmid was accomplished as previously described by L. F. Liu et al., J. Biol. Chem., 258, 15365 (1983). The cleavage assays were performed as previously reported by A. Y. Chen et al., Cancer Res., 53, 1332 (1993). Human topoisomerase I was isolated as a recombinant fusion protein using a T7 expression system.

[3] = target: T2, mammalian DNA topoisomerase I (Homo sapiens, UniProt P11387); details: cited from earlier work
T2 sequence (P11387 1-765): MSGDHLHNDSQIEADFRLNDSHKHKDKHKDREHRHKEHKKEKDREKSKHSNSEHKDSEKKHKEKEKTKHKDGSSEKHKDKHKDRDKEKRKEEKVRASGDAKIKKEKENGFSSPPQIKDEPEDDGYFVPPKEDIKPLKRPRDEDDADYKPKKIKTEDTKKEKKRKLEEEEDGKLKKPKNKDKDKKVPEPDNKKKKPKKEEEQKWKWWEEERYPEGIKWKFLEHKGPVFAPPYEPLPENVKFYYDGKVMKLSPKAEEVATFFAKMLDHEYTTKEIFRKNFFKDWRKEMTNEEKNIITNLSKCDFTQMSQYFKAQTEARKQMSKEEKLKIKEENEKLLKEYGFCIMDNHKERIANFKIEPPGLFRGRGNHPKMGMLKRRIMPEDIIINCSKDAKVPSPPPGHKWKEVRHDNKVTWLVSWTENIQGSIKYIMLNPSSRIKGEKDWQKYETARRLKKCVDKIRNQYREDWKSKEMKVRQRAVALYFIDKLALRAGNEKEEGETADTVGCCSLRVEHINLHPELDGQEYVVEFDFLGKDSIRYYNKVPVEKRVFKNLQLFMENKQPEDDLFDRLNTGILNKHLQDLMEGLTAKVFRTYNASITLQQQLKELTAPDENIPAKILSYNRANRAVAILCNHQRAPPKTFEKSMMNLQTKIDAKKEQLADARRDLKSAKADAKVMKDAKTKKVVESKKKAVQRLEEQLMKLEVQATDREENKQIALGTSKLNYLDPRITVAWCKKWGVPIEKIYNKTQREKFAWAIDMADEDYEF

[4] = target: T3, Aspergillus topoisomerase I (Aspergillus nidulans, UniProt Q5BGS7); assay: Topoisomerase I cleavage assay, Aspergillus enzyme; format: biochemical; details: DNA cleavage assay
T3 construct: about 105 kDa by phosphate transfer
T3 sequence (Q5BGS7 1-871): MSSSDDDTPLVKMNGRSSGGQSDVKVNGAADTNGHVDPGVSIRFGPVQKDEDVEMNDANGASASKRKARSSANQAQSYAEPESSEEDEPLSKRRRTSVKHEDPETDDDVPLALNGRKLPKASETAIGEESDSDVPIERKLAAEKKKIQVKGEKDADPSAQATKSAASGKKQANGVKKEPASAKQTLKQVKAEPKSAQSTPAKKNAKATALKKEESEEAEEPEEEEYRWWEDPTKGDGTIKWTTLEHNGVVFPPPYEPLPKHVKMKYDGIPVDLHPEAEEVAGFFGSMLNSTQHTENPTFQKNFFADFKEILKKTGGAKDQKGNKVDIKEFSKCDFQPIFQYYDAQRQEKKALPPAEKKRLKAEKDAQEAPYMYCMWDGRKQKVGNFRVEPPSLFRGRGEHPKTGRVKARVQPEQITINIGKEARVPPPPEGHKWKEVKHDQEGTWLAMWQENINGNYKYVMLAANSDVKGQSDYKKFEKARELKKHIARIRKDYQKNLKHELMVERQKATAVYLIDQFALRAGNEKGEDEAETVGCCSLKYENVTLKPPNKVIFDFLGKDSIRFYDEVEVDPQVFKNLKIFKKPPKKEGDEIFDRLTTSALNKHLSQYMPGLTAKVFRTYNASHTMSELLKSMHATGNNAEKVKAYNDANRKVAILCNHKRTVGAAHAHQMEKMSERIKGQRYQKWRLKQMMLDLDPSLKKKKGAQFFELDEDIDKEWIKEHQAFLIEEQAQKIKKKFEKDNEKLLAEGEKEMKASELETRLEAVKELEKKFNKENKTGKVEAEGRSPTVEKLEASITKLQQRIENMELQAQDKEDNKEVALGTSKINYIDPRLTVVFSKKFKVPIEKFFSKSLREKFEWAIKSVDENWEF
Protocol: Two liters of YG medium (0.5% yeast extract and 2% glucose) were inoculated with approximately 5×10^8 conidia/ml. After 16 hours of growth at 37° C., the mycelia were collected, washed with Buffer I (50 mM Tris-HCl, pH 7.7, 1 mM EDTA, 1 mM EGTA, 10% glycerol, 1 mM phenylmethylsulfonyl fluoride and 1 mM 2-mercaptoethanol), and quickly chilled in liquid nitrogen. The frozen mycelia (approximately 20 grams) were ground to powder and resuspended in 300 ml of Buffer I. The lysate was centrifuged at 10K rpm in a Sorval HB3 Rotor for 15 minutes to remove cell debris. The supernatant was made 6% in polyethylene glycol (v/v) and 1M NaCl. After one hour on ice with gentle stirring, the solution was centrifuged at 14K rpm in a Sorvall Rotor for 30 minutes to remove nucleic acids.
Subsequent steps in purification were the same as described previously for purification of recombinant human DNA topoisomerase I (B. Gatto et al., Cancer Res., 56, 2795 (1996)). Briefly, the supernatant was chromatographed directly onto a hydroxyapatite Bio-gel HTP (BioRad Laboratories, Richmond, Calif.) column. Fractions containing relaxation activity were pooled, diluted and then loaded onto a BioRex70 column (BioRad Laboratories, Richmond, Calif.). The column was developed with a linear gradient from 0.2 to 1M KCl. The peak fractions were pooled and dialyzed overnight at 4° C. against 30 mM potassium phosphate, 50% glycerol (v/v), 0.5 mM EDTA, and 1 mM DTT. Recombinant human topoisomerase I was purified from Escherichia coli BL21 (DE3) harboring PET1B as described previously (Gatto et al., Cancer Res., 56, 2795 (1996)).
DNA topoisomerase I cleavage assays were performed as described by Y.-H. Hsiang et al., J. Biol. Chem., 260, 14873 (1985). YEpG DNA was linearized with BamHI and then 3 '-end-labeled with Klenow polymerase and α[-^32 P]dCTP. Following phenol extraction and ethanol precipitation, the labeled DNA was resuspended in 10 mM Tris, pH 8.0, and 1 mM EDTA. The DNA cleavage assay was done in a reaction mixture (20 μl) containing 40 mM Tris-HCl, pH 7.8, 100 mM KCl, 10 mM MgCl2, 0.5 mM dithiothreitol, 0.5 mM EDTA, 30 μg/ml bovine serum albumin, 20 ng of labeled YEpG DNA, and […] of Aspergillus or human topoisomerase I diluted to various extents. Following incubation at 23° C. for 15 minutes, the reactions were terminated by the addition of SDS (final concentration 1%) and proteinase K (final concentration 200 μg/ml). Proteinase K treatment continued at 37° C. for another 1 hour. The terminated reactions were either alkali-denatured and then loaded (alkaline loading) or loaded directedly in neutral loading buffer (neutral loading) onto a 1% agarose gel in neutral TPE electrophoresis solution. Gel drying and autoradiography were performed as described by Hsiang et al., cited above.

human topoisomerase I = target: T4, human topoisomerase I (Homo sapiens, UniProt P11387); details: cited from earlier work
T4 construct: made in house; host or cells: Escherichia coli BL21 (DE3) harboring PET1B
T4 sequence (P11387 1-765): T2 sequence (P11387 1-765)

[5] = test system: yeast cells expressing human topoisomerase I; assay: Yeast cytotoxicity assay, human topoisomerase I; format: cell-based, S. cerevisiae
Excerpt: (§1) The topoisomerase I-specific in vivo cytotoxicity assay was adapted from A. M. Knab et al., J. Biol. Chem., 268, 22322 (1993). In this system, various topoisomerase I genes or cDNAs cloned into the single-copy yeast plasmid vector (YCpGAL1; Knab et al., cited above) are expressed under the control of the GAL1 promoter in the JN2-134 strain of S. cerevisiae (MAT, rad52::Leu2, trp1, ade2-1, his7, ura3-52, ise1, top1-1, and leu2; M. A. Bjornsti et al., Cancer Res., 49, 6318 (1989)). The topoisomerase I gene or cDNA constructs in the vector are, respectively, the wild-type yeast topoisomerase I gene (YCpGAL-ScTOP1; need cite (1989)), a nonfunctional topoisomerase I gene where the active site tyrosine-727 is mutated to phenylalanine (YCPGAL1-Sctop1Y727; A. M. Knab et al., J. Biol. Chem., 268, 22322 (1993)), and the wild-type human topoisomerase I cDNA (YCp-GAL-hTOP1; M. A. Bjornsti et al., Cancer Res., 49, 6318 (1989)).
(§2) To qualitatively test the cytotoxicity and the topoisomerase I specificity of the drugs, yeast cells containing the specified plasmid were grown in dropout medium supplemented with uracil, 2% galactose, and the drug being tested.

[6] = test system: yeast cells expressing yeast topoisomerase I; assay: Yeast cytotoxicity assay, yeast topoisomerase I; format: cell-based, S. cerevisiae
Excerpt: as §1, §2

[7] = test system: yeast cells expressing nonfunctional yeast topoisomerase I; assay: Yeast cytotoxicity assay, nonfunctional yeast topoisomerase I; format: cell-based, S. cerevisiae
Excerpt: as §1, §2

potency as topoisomerase I inhibitor compared with Hoechst 33342, in words [2]: much less active
Topo I-mediated DNA cleavage (REC, Relative Effective Concentration) [2]: 100
Structure (SMILES): CCCc1ccc2[nH]c(-c3ccc4[nH]c(-c5ccc6[nH]cnc6c5)nc4c3)nc2c1 [Compound 12, 5-Propyl-2-[2'-(benzimidazol-5"-yl)benzimidazol-5'-yl]benzimidazole]
cytotoxicity towards RPMI 8402, in words [1]: weak cytotoxicity

Topo I-mediated DNA cleavage (REC, Relative Effective Concentration) [2]: 1
Structure (SMILES): Brc1ccc2[nH]c(-c3ccc4[nH]c(-c5ccc6[nH]cnc6c5)nc4c3)nc2c1 [JSKIV-37, 5-Bromo-2-[2'-(benzimidazol-5"-yl)benzimidazol-5'-yl]-benzimidazole]
IC50 ([1]; Homo sapiens, RPMI 8402, 96 h, read-out: Cytotoxicity IC50 RPMI): 1.4 µM

Structure (SMILES): O=[N+]([O-])c1ccc2nc(-c3ccc(O)cc3)[nH]c2c1 [QS/II/51]
inhibition (poisoning) of mammalian DNA topoisomerase I, previous studies [3]: inhibitors (poisons)
inhibition (poisoning) of Aspergillus topoisomerase I, in words [4]: None of the mono-benzimidazoles, including QS/II/50, QS/II/51, QS/II/59A, an QS/II/9, exhibited any inhibitory effect

Structure (SMILES): COc1cc2c[n+](C)c3c4cc5c(cc4ccc3c2cc1OC)OCO5 [nitidine]
inhibition of human topoisomerase I, in words (known / previously disclosed) (human topoisomerase I): highly potent inhibitors
cytotoxicity to yeast cells expressing human topoisomerase I [5]: highly cytotoxic
cytotoxicity to yeast cells expressing functional yeast topoisomerase I [6]: not cytotoxic
cytotoxicity to yeast cells expressing nonfunctional yeast topoisomerase I [7]: not cytotoxic
inhibition (poisoning) of Aspergillus topoisomerase I, in words [4]: completely resistant; also recorded: did not inhibit Aspergillus topoisomerase I to any significant extent
